This assay addresses JAK3 enzyme (Homo sapiens (Human), UniProt P52333). Description: JAK Caliper Enzyme Assay at 4 μM or 1 mM ATP. The class given is biochemical.
Where [1] appears, read: read-out: JAK3 (4 μM ATP) IC50, 4 μM ATP.
Where [2] appears, read: read-out: JAK3 (1 mM ATP) IC50, 1 mM ATP.

Structures are written as SMILES. Read-outs that look alike come from different tables or passages of the source.

Sequence of JAK3 enzyme (P52333 whole entry, species assumed): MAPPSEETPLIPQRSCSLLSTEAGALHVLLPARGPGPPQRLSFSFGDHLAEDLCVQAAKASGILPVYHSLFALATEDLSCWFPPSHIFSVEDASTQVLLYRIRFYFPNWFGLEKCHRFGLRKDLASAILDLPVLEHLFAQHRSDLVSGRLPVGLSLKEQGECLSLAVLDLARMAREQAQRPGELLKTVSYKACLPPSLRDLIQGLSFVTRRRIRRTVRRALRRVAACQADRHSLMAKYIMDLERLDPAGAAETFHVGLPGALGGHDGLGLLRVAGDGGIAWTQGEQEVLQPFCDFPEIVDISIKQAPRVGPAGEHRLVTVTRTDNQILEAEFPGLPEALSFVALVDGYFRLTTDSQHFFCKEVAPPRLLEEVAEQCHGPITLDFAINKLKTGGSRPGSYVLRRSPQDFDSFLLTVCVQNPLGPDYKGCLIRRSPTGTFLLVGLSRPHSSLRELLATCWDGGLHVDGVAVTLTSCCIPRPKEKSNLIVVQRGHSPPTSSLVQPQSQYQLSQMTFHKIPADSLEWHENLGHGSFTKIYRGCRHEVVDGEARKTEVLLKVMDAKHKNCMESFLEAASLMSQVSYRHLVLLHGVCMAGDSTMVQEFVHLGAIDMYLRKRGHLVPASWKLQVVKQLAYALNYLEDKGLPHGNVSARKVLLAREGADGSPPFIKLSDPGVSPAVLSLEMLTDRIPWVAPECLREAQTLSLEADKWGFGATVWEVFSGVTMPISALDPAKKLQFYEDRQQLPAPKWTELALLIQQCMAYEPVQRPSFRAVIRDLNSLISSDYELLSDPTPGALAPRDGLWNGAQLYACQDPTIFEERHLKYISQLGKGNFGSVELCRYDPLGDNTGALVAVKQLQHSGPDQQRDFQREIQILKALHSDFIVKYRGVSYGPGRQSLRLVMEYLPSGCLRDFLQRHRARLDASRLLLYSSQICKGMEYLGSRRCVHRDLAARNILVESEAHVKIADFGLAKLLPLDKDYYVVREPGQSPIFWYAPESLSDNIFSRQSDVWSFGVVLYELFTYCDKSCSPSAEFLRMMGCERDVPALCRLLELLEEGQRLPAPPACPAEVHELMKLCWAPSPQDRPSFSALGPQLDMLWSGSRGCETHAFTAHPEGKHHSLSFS

`C=C(C)C(=O)N1CCC[C@@H](Nc2ncnc3[nH]cc(Cc4ccc(O)cc4)c23)C1` [Example 139, 1-[(3R)-3-{[5-(4-hydroxybenzyl)-7H-pyrrolo[2,3-d]pyrimidin-4-yl]amino}piperidin-1-yl]-2-methylprop-2-en-1-one]: the IC50 (in general, the concentration that gives 50% inhibition) under setting [1] is 83.1 nM.

Take `C/C=C/C(=O)N1CCC[C@@H](N2CC(C)c3c[nH]c4ncnc2c34)C1` (mixture of isomers) [Example 154, (2E)-1-[(3R)-3-(3-methyl-3,4-dihydro-1,5,6,8-tetraazaacenaphthylen-5 (1H)-yl)piper-idin-1-yl]but-2-en-1-one]: under setting [1], the IC50 is 4940 nM.

In the case of `C/C=C/C(=O)N1CCC[C@@H](Nc2ncnc3[nH]ccc23)C1` [Example 95, (2E)-1-[(3R)-3-(7H-pyrrolo[2,3-d]pyrimidin-4-ylamino)piperidin-1-yl]but-2-en-1-one], the IC50 was 2480 nM under setting [1] and > 1000 nM under setting [2].

Take `C=CC(=O)N1CCC[C@@H](Nc2ncnc3[nH]cc(-c4cccnc4)c23)C1` [Example 26, 1-[(3R)-3-{[5-(pyridin-3-yl)-7H-pyrrolo[2,3-d]pyrimidin-4-yl]amino}piperidin-1-yl]prop-2-en-1-one]: the IC50 under setting [1] was 1.6 nM and the IC50 under setting [2] came out at 153 nM.

For the compound `C=CC(=O)N1CCC(Nc2cnc3[nH]cc(-c4cccnc4)c3n2)CC1` [Example 205, 1-(4-{[7-(pyridin-3-yl)-5H-pyrrolo[2,3-b]pyrazin-2-yl]amino}piperidin-1-yl)prop-2-en-1-one], the IC50 stood at 0.5 nM under setting [1] and 14.8 nM under setting [2].

As for `C=CC(=O)N1CC[C@@H]2CN(c3cnc4[nH]cc(C(=O)NC(C)C)c4n3)C[C@@H]21` [Example 170, 2-[(3aR,6aR)-1-acryloylhexahydropyrrolo[3,4-b]pyrrol-5(1H)-yl]-N-(propan-2-yl)-5H-pyrrolo[2,3-b]pyrazine-7-carboxamide], the half-inhibitory concentration (IC50) was 3.3 nM under setting [1] and 392 nM under setting [2].

Take `C=CC(=O)N1CCC(Nc2cnc3[nH]cc(C(=O)NC4CCC(F)(F)C4)c3n2)CC1` (stereo not shown) [Example 259, 2-[(1-acryloylpiperidin-4-yl)amino]-N-(3,3-difluorocyclopentyl)-5H-pyrrolo[2,3-b]pyrazine-7-carboxamide]: the IC50 is 0.2 nM under setting [1] and 11.1 nM under setting [2].

With `C=CC(=O)N1CCC[C@@H](Nc2ncnc3[nH]cc(-c4ccccc4O)c23)C1` [Example 25, 1-[(3R)-3-{[5-(2-hydroxyphenyl)-7H-pyrrolo[2,3-d]pyrimidin-4-yl]amino}piperidin-1-yl]prop-2-en-1-one], the IC50 by setting is: under setting [1], 2.9 nM; under setting [2], 149 nM.

Take `C=CC(=O)N1CCC(CNc2cnc3[nH]cc(C(=O)NC(C)C)c3n2)CC1` [Example 193, 2-{[(1-acryloylpiperidin-4-yl)methyl]amino}-N-(propan-2-yl)-5H-pyrrolo[2,3-b]pyrazine-7-carboxamide]: the IC50 by setting is: under setting [1], 29 nM; under setting [2], 2290 nM.

Regarding `C=CC(=O)N1CCN(c2cnc3[nH]cc(C(=O)NC(C)C)c3n2)[C@@H](C2CC2)C1` [Example 314, 2-[(2S)-4-acryloyl-2-cyclopropylpiperazin-1-yl]-N-(propan-2-yl)-5H-pyrrolo[2,3-b]pyrazine-7-carboxamide], the IC50 was found to be 5 nM under setting [1] and 662 nM under setting [2].

With `C=CC(=O)N1C[C@H](Nc2ncnc3[nH]cc(CCOC)c23)CC[C@@H]1C` [Example 13, 1-((2S,5R)-5-((5-(2-Methoxyethyl)-7H-pyrrolo[2,3-d]pyrimidin-4-yl)amino)-2-methylpiperidin-1-yl)prop-2-en-1-one], the concentration for half-maximal inhibition (IC50) reads like this: under setting [1], 0.4 nM; under setting [2], 60.6 nM.

On to `C=CC(=O)N1C[C@H](Nc2ncnc3[nH]ccc23)C[C@H](OC)C1` [Example 19, 1-((3R,5S)-3-((7H-Pyrrolo[2,3-d]pyrimidin-4-yl)amino)-5-methoxypiperidin-1-yl)prop-2-en-1-one], for which the IC50 by setting is: under setting [1], 0.6 nM; under setting [2], 67.6 nM.

The values are drawn from patent US20250134869A1, “Pyrrolo[2,3-d]pyrimidinyl, Pyrrolo[2,3-b]pyrazinyl and Pyrrolo[2,3-d]pyridinyl Acryla-mides” (Pfizer Inc, priority 2021, published 2025).
